For 3 compounds, IC50 results are on record in BindingDB's records for PubMed 30125720 (Southern Medical University, 2018).

The nature of the experiment: Inhibition of TGF-beta (unknown origin).
The compound `CC(=O)Nc1cc(Nc2nc(-c3ccc(F)c(C)n3)nc3[nH]cnc23)ccn1` gave an IC50 of 0.34 nM.
Compound `CCc1cnn(-c2cccc(C)n2)c1-c1cc2cnccc2s1` [US9090625, 4] had an IC50 of 4.3 nM.
Then `O=c1[nH]cc(-c2cccc(CO)c2)cc1-c1nc2cc(N3CCNCC3)ccc2[nH]1`, with 970 nM.

One may read the IC50 as the concentration that inhibits the measured activity by half. A higher IC50 goes with weaker potency.
